# Key:
# Format in all cases: in vivo
# [1] = tested on: mouse breast cancer cell line 4T1-Luc2 AcGFP; test: Antitumor effect in mouse breast cancer cell line (4T1-Luc2 AcGFP) graft model; conditions: BALB/c mice, anti-PD-1 antibody 0.2 mg/mouse intraperitoneal day 0, 4, 7, 11
# Protocol: Example 1 Antitumor effect by combination of compound A and anti-PD-1 antibody in mouse breast cancer cell line (4T1-Luc2 AcGFP) graft model
# The antitumor effect of administering compound A and anti-PD-1 antibody was evaluated in BALB/c mice (BALB/cAriNCriCrij, female, Japan Charles River) with 6 mice per group.
# The mouse breast cancer cell line 4T1 (ATCC) was seeded in a 6-well microplate (Falcon), at a cell count of 1.5×10^5 per well. The culture medium used was RPMI-1640 medium containing 10% FBS, penicillin, streptomycin and 2-mercaptoethanol (FujiFilm-Wako). The seeded cells were cultured overnight using an incubator under conditions of 5% CO2, 37° C. The culture medium was replaced on the following day.
# Vector pPBcmvIP-mcs was constructed from PB-CMV-MCS-EF1α-Puro vector (SBI; Catalog No.: PB510B-1), removing EF1-Puro and substituting 1RES-Puro. A Luc2/AcGFP fusion gene was then inserted between the pPBcinvIP-mcs CMV promoter and IRES to express Luciferase (Luc) and Green Fluorescent Protein (GFP), to obtain vector pPBcinvIP Luc2-AcGFP. During the process of constructing each vector, insertion of the separated fragments was confirmed by an established method.
# The vector pPBcrnvIP Luc2-AcGFP in 10 mM Tris-C1 (pH 8.0) and 1 mlbJ EDTA (pH 8.0) (“TE Buffer”) (1.67 μg), Super PiggyBac Transposase Expression Vector (System Biosciences, LLC) in TE Buffer (0.33 μg) and X-treamGene reagent (Roche) (8 μL) were mixed, and the mixture was adjusted to a total amount of 210 μL with Opti-MEM (Thermo Fischer Scientific). The obtained mixture was allowed to stand at room temperature for 15 minutes, and then added to the cultured 4T1 cells. The medium was exchanged and subculturing was carried out in a T75 flask, after which culturing was continued under conditions of 5% CO2, 37° C. After 4 days, culturing was carried out in 2 μg/mL puromycin-containing medium.
# Cells were selected twice with a flow cytometer, using AcGFP positivity as the marker. A mycoplasma removal reagent was added to the cells and culturing was continued for 8 days.
# Cells of the mouse breast cancer cell line 4T1-Luc2 AcGFP established by the method described above were suspended in HBSS (FujiFilm-Wako) to a concentration of 2×10^7/mL. The mixture was grafted into mammary gland fat of BALB/c (BALB/cAriNCriCrlj, female. Japan Charles River) in amounts of 0.05 mL each, and the antitumor effect was evaluated.
# (§1) On the 4th day after grafting, the long and short diameters of the tumors were measured using an electronic digital caliper (Digimatic™ caliper by Mitsutoyo Corp.), The mice were divided into groups in such a manner that the average tumor volumes were the same in each group. The tumor volumes were calculated by the following formula.
# (§2) Tumor volume (mm)=Long diameter (n)×short diameter (mm)×short diameter (mm)/2
# Compound A was dissolved in water for injection (Otsuka Pharmaceutical Factory, Inc.) to a concentration of 2.5 mg/mL. The anti-mouse PD-1 antibody (BioXcell) was diluted with PBS(−) (FujiFilm-Wako) to a concentration of 1 mg/mL. […]
# With the starting day of administration defined as day 0, the tumor volume of each mouse was measured on day 4, day 7, day 11 and day 14.
# The tumor volume on day 14 was statistically analyzed by a One-way ANOVA statistical test, or if […] was found in the test, by the Tukey-Kramer method. […]
# [2] = tested on: mouse renal cell carcinoma cell line RAG; test: Antitumor effect in mouse renal cell carcinoma cell line (RAG) graft model
# Protocol: Example 2 Antitumor effect by combination of compound A and anti-PD-1 antibody in mouse renal cell carcinoma cell line (RAG) graft model
# The antitumor effect of administering compound A and anti-PD-1 antibody was evaluated in BALB/c mice (BALB/cAnNCriCrlj, female, Japan Charles River) with 10 mice per group.
# The grafted cells were pre-conditioned in BALB/c mice. The mouse renal cell carcinoma cell line RAG (ATCC) was suspended in EIBSS to a concentration of 2×10^8/mL. An equal volume of Matrigel™ matrix (Japan Becton Dickinson) was added to and thoroughly mixed with the suspension. The mixture was subcutaneously grafted on the right side of BALB/c mice (BALB/cAnNCriCrlj, female, Japan Charles River), at 0.1 mL each. After grafting, the formed tumors were extracted and finely cut. A Tumor Dissociation Kit, Mouse (Miltenyi Biotec K.K.) was then used for stirring in a GentleMACS (Miltenyi Biotec K.K.) to obtain a monocellular suspension. After passing through a 70 μm cell strainer, the cells were collected by centrifugation and cultured in medium containing 10% bovine serum.
# (§3) The mouse renal cell carcinoma cell line RAG established by this method was suspended in HBSS to a concentration of 2.5×1.0^7/mL. The mixture was subsequently grafted onto the right side of BALB/c (BALB/cAnNCriCrij, female, Japan Charles River) in amounts of 0.1 mL each, and the antitumor effect was evaluated.
# as §1, with “7th” for “4th”, “(Digirnatic™” for “(Digimatic™”, “Corp.).” for “Corp.),”
# as §2
# (§4) Compound A was dissolved in water for injection (Otsuka Pharmaceutical Factory, Inc.) to a concentration of 2.5 mg/mL. The anti-mouse PD-1 antibody (BioXcell) was diluted with physiological saline (Otsuka Pharmaceutical Factory, Inc.) to a concentration of 1 mg/mL.
# (§5) Mice in the compound A administration group were given compound A by oral administration at a dose of 25 mg/kg (10 mL/kg), once per day for 7 days, Mice in the anti-PD-1 antibody administration group were intraperitoneally administered a dose of 200 lig/mouse (200 μL/mouse) on day 0 and day 3, where the starting day of administration was defined as day 0. The mice in the compound A and anti-PD-1 antibody combination group were administered both drugs in the same manner described above.
# With the starting day of administration defined as day 0, the tumor volume of each mouse was measured on day 3 and day 7, The mean tumor volumes in each group are shown in Table 2 and FIG. 2. […]
# [3] = tested on: mouse hepatocellular carcinoma cell line BNL 1 ME A.7R.1; test: Antitumor effect in mouse hepatocellular carcinoma cell line (BNL 1 ME A.7R.1) graft model
# Protocol: Example 3 Antitumor effect by combination of compound A and anti-PD-1 antibody in mouse hepatocellular carcinoma cell line (BNI, 1 ME A.7R.1) graft model
# The antitumor effect of administering compound A and anti-M-1 antibody was evaluated in BALB/c mice (BALB/cAnNCriCrli, female, Japan Charles River) with 10 mice per group.
# The grafted cells were pre-conditioned in BALB/c mice, A suspension of the mouse hepatocellular carcinoma cell line line BNL 1 ME A.7R.1 (ATCC) was subcutaneously grafted onto the right side of BALB/c mice (BALB/cArtNCriCrlj, male, Japan Charles River), at 5×10^6 cells per mouse. After grafting, the formed tumors were extracted and finely cut. The mixture was then stirred with a GentleMACS (Miltenvi Biotec K.K.) to obtain a monocellular suspension. After passing through a cell strainer, the cells were collected by centrifugation and cultured.
# as §3, with “hepatocellular” for “renal cell”, “BNL 1 ME A.7R.1” for “RAG”, “1×10^8/mL.” for “2.5×1.0^7/mL.”, “(BALB/cAnNCrICrlj,” for “(BALB/cAnNCriCrij,”
# as §1, with “(Digimaticlm” for “(Digimatic™”, “Corp.).” for “Corp.),”
# Tumor volume […]=Long diameter (mm)×short diameter (mm)×short diameter (mm)/2
# as §4
# as §5, with “1w” for “by”, “days.” for “days,”, “μg/mouse” for “lig/mouse”
# With the starting day of administration defined as day 0, the tumor volume of each mouse was measured on day 3 and day 7.
# The tumor volumes in the control group and in each group on day 7 were compared in Dunnett's multiple comparison test. The final significance level was as follows.
# [4] = day 7, Dunnett's multiple comparison test
smiles,measurement,setting,value
"CNC(=O)n1ccc2cc(Oc3ccnc(NC(=O)c4ccc(C5CCN(CCO)CC5)cc4)c3)c(OCCOC)cc21 [Compound A, 5-((2-(4-(1-(2-hydroxyethyl)piperidin-4-yl)benzamide)pyridin-4-yl)oxy)-6-(2-methoxyethoxy)-N-methyl-1H-indole-1-carboxamide]","mean tumor volume, Day 0","[1]; Day 0 (starting day of administration), 6 per group, compound A 25 mg/kg oral once per day for 14 days",77.3 mm^3
same,"mean tumor volume, Day 4","[1]; Day 4, compound A 25 mg/kg oral once per day",139.0 mm^3
same,"mean tumor volume, Day 7","[1]; Day 7, compound A 25 mg/kg oral once per day",131.2 mm^3
same,"mean tumor volume, Day 11","[1]; Day 11, compound A 25 mg/kg oral once per day",226.0 mm^3
same,"mean tumor volume, Day 14","[1]; Day 14, compound A 25 mg/kg oral once per day",314.6 mm^3
same,"mean tumor volume, Day 0","[2]; Day 0 (starting day of administration), BALB/c mice, 10 per group, compound A 25 mg/kg oral once per day for 7 days, anti-PD-1 antibody 200 ug/mouse intraperitoneal day 0 and 3",58.8 mm^3
same,"mean tumor volume, Day 3","[2]; Day 3, BALB/c mice, compound A 25 mg/kg oral once per day, anti-PD-1 antibody 200 ug/mouse intraperitoneal day 0 and 3",72.5 mm^3
same,"mean tumor volume, Day 7","[2]; Day 7, BALB/c mice, compound A 25 mg/kg oral once per day, anti-PD-1 antibody 200 ug/mouse intraperitoneal day 0 and 3",107.5 mm^3
same,difference in tumor volume between the control group and the treatment group,[2]; [4],No statistically significant difference
same,"mean tumor volume, Day 0","[3]; Day 0 (starting day of administration), BALB/c mice, 10 per group, compound A 25 mg/kg oral once per day for 7 days, anti-PD-1 antibody 200 μg/mouse intraperitoneal day 0 and 3",109.0 mm^3
same,"mean tumor volume, Day 3","[3]; Day 3, BALB/c mice, compound A 25 mg/kg oral once per day, anti-PD-1 antibody 200 μg/mouse intraperitoneal day 0 and 3",223.6 mm^3
same,"mean tumor volume, Day 7","[3]; Day 7, BALB/c mice, compound A 25 mg/kg oral once per day, anti-PD-1 antibody 200 μg/mouse intraperitoneal day 0 and 3",221.4 mm^3
same,difference in tumor volume between the control group and the treatment group,[3]; [4],No statistically significant difference

# From US20230330081A1, “PHARMACEUTICAL COMPOSITION FOR TREATING TUMORS” (EISAI R&D MANAGEMENT CO., LTD., priority 2020, published 2023)
